“And” between values parts separate entries of the source, which are not always exact repeats. Equal values may be shown once. “Also recorded” adds a separate entry of the source. Read-outs that look alike come from different tables or passages of the source.
Tests used:
T. gondii tachyzoites [1] = test: Immunofluorescence microscopy of treated tachyzoites in LLC-MK2 cells (cell division arrest, basal IMC gap); format: cell-based, Toxoplasma gondii; details: for Basal IMC length mean: untreated control 0.65 ± 0.11 μm; for Effect on parasite division, anti-IMC1 labeling: 1 and 5 μM Et-Cipro and Adam-Cipro, 10 μM Ph-Cipro
Experimental: For Cipro assay, cells were infected in a ratio of 5:1 parasites per host cell and treated for 24, 48 and 72h. After treatment, infected cells were fixed in 3.7% freshly-prepared formaldehyde, permeabilized with 0.5% Triton X-100 for 15 min, and blocked with 3% bovine serum albumin (BSA) in PBS at pH 7.4 and room temperature for 1 h. All antibody incubations were performed in 3% BSA in PBS, for 1h, at room temperature. The following primary antibodies were used: anti-SAG1 (kindly provided by Dr. John Boothroyd, Stanford University School of Medicine, USA), at a dilution of 1:1000; anti-HSP60 and anti-Morn1 (kindly provided by Dr. Boris Striepen, University of Georgia, USA), diluted to 1:2000 and 1:100, respectively; and anti-IMC1 (kindly provided by Dr. Gary Ward, University of Vermont, USA), diluted to 1:1000. The secondary antibodies used here were anti-mouse/rabbit coupled to Alexa 488 or 546 (Molecular Probes). Sytox green (Molecular Probes) and DAPI (Sigma-Aldrich) were used to label the DNA. After labeling, the coverslips were mounted onto slides using Prolong gold (Life Technologies), and samples were examined on a TCSSP5 Leica or Zeiss LSM710 laser scanning confocal microscopes.

[2] = for Serum levels of creatinine kinase (in words): single oral dose, 48 h; for Mouse weight (g) After 48 h / Mouse weight (g) Initial: uninfected Swiss mice; for Mouse weight (g) Initial: before dosing; for Serum urea: reference 18–29 mg/dL; for Serum creatinine kinase: reference ≤ 1070 U/L
Experimental: Acute toxicity analysis was performed using non-infected female Swiss mice (19–21 g).

[3] = system: Cryptosporidium parvum sporozoites; test: Cryptosporidium parvum in vitro growth assay in MDBK cells; format: cell-based
Experimental: C. parvum oocysts obtained from infected neonatal calves (Institut National de la Recherche Agronomique-INRA, Nouzilly, France) were purified as previously described and stored in PBS at 4°C. Madin Darby bovine kidney cell line (MDBK; ECACC # 88081201, Sophia Antipolis, France) was cultured at 37°C in a 5% CO2 moist atmosphere in growth medium: RPMI 1640 (Sigma, L’Isle d’Abeau, France) supplemented with 25 mM HEPES (Sigma H-3375), 200 U/ml of penicillin, 200 μg/ml of streptomycin (Sigma P-0781) and 10% fetal calf serum (FCS; Dutscher, Brumath, France).
Prior to infection, MDBK cells were trypsinized and seeded in just one well of a 24-well plate in 2 ml of RPMI 1640 with 1% FCS. Aseptic oocysts were prepared for excystation by incubation in RPMI-1640, pH 2 (for 30 min at 37°C). Then, oocytes were washed in RPMI 1640 with 1% FCS and allowed to interact with MDBK cells for 1.5 h at 37°C in a 5% CO2 atmosphere. After 3 washes by centrifugation at 160 g in RPMI 1640 to remove non-excysted oocysts and shells, infected cells were plated in 24-well plates containing glass coverslips, in 500 μl/well of RPMI/1%FCS, and allowed to settle for 24 h. The infected cells were subsequently washed 3 times with RPMI 1640 and allowed to grow for a further 5 h (in 500 μl/well of RPMI/1% FCS). 500 μl of medium containing twice-concentrated Cipro derivatives were then added in triplicates in an equal volume of growth medium and left for another 24 h. Cells were fixed in 100% methanol and stained with 20% Giemsa and 1% Alcian blue as previously described, and the effects against sporozoite proliferation were evaluated by examining at least 1000 cells/coverslip in a light microscope, using an oil immersion X100 objective.

T. gondii tachyzoites [4] = test: Parasites per vacuole in LLC-MK2 cells after 6 h treatment (light microscopy); format: cell-based, Toxoplasma gondii
Experimental: For the treatment of T. gondii tachyzoites with Cipro derivatives in vitro, 5x10^5 LLC-MK2 cells (ATCC CCL7, Rockville, MD/EUA) in RPMI medium were plated on coverslips inside 24-well tissue culture plates, and allowed to settle at 37°C (5% CO2) for ~24h. Then, cells were infected with parasites (freshly-harvested from infected mice) at a 10:1 ratio of parasites to host cells. […] Then, coverslips were fixed with Bouin and stained with panoptic (solutions 2 and 3 of the ‘Panotico rápido’ kit, from Laborclin Ltda., Paraná, Brazil). Alternatively, cultures were washed three times with 0.5 ml of medium (to remove test compounds) and incubated for an additional 18 h in medium without drugs, before fixing and staining. The number of parasites per vacuole was scored by direct light microscopy examination. Three independent experiments were performed for each treatment condition, and the results were analyzed by two-way ANOVA (using GraphPad Prism 5.0).

T. gondii [5] = test: Plaque assay in human foreskin fibroblasts, 10 days treatment; format: cell-based, Toxoplasma gondii; details: HFF
Experimental: For plaque assay, 6-well tissue culture plates were seeded with human foreskin fibroblasts (HFF; ATCC). HFF was grown in high glucose Dulbeco’s Modified Eagle Medium supplemented with 10% FBS, 2mM L-glutamine, 100 U/ml penicillin, and 100 μg/ml streptomycin and maintained at 37°C with 5% CO2. After cultures reached confluence each well was infected with 10^4 of T. gondii. Infected cultures were treated for 10 days with Cipro derivatives, Cipro or left untreated.

T. gondii tachyzoites [6] = details: read-out: IC50 against T. gondii in vitro; after 48 h of treatment; cited from earlier work
[7] = system: T. gondii tachyzoites (RH strain); test: Survival of mice acutely infected with T. gondii, 7-day oral treatment; format: in vivo, Toxoplasma gondii; details: 7 days, from 24 h post-infection
Experimental: In this study, we used tachyzoite forms the RH strain of Toxoplasma gondii, obtained from the peritoneal cavity of mice 2 days after infection. […] Drinking water and food were given ad libitum.
To determine compound efficacy against T. gondii in vivo, female Swiss mice were infected intraperitoneally (i.p.) with 5x10^3 T. gondii tachyzoites and treated with test compounds from 24 h post-infection. […] Mice were treated once daily for 7 days, by oral gavage, and mouse mortality was monitored once a day for a period of 60 days. During survival studies, mice were not inflicted to any suffering condition and mice presenting morbidity symptoms (shivering, ruffled hair and immobility) were euthanized by CO2 asphyxiation to minimize animal suffering, and then mortality was scored. Survival curves were calculated using the Kaplan and Meier method, and compared using the log-rank (Mantel-Cox) test, in GraphPad Prism 5.0 (GraphPad Software Inc.) and P<0.05 was considered statistically significant.

T. gondii [8] = system: T. gondii; parameters: method as in PMID 8843293, PMID 11120943; details: read-out: IC50 against T. gondii, cited from earlier work

Compound | Effect on parasite division, anti-IMC1 labeling (T. gondii tachyzoites [1]; 24 h) | Mouse weight (g) After 48 h ([2]; single oral dose 25 mg/kg) [g] | Mouse weight (g) Initial ([2]; single oral dose 25 mg/kg) [g] | Serum urea ([2]; single oral dose 25 mg/kg) [mg/dL] | Mouse weight (g) After 48 h ([2]; single oral dose 50 mg/kg) [g] | Mouse weight (g) Initial ([2]; single oral dose 50 mg/kg) [g] | Serum urea ([2]; single oral dose 50 mg/kg) [mg/dL] | Serum creatinine kinase ([2]; single oral dose 50 mg/kg) [U/L] | Mouse weight (g) After 48 h ([2]; single oral dose 100 mg/kg) [g] | Mouse weight (g) Initial ([2]; single oral dose 100 mg/kg) [g] | Serum urea ([2]; single oral dose 100 mg/kg) [mg/dL] | Mouse weight (g) After 48 h ([2]; single oral dose 200 mg/kg) [g] | Mouse weight (g) Initial ([2]; single oral dose 200 mg/kg) [g] | Serum urea ([2]; single oral dose 200 mg/kg) [mg/dL] | Serum creatinine kinase ([2]; single oral dose 200 mg/kg) [U/L] | % inhibition of sporozoites growth ([3]; 12.5 μM, 24 h, MDBK cells) [%] | % inhibition of sporozoites growth ([3]; 25 μM, 24 h, MDBK cells) [%] | IC50 (T. gondii tachyzoites [6]) [µM] | Parasite proliferation in plaque assay (T. gondii [5]; 10 μM) | also measured
CCOC(=O)c1cn(C2CC2)c2cc(N3CCNCC3)c(F)cc2c1=O [Et-Cipro] | parasite cell division arrest | 22.25 | 19.87 | 55.8 | 20.92 | 19.15 | 51.2 | 182 | 22.27 | 20.71 | 55.1 | 22.17 | 20.0 | 49.3 | 583 | 20.3 ± 10.1 | 32.6 ± 7.6 | 0.42 |  | Basal IMC length mean (T. gondii tachyzoites [1]; 1 μM, 24 h): 0.76 ± 0.20 μm; Parasite morphology, anti-SAG1 / Sytox green labeling (T. gondii tachyzoites [1]; 5 μM, 24 h): formation of large multinucleated parasites; Basal IMC length mean (T. gondii tachyzoites [1]; 5 μM, 24 h): 0.80 ± 0.26 μm; Serum levels of creatinine kinase (in words) ([2]; higher doses): normal; Serum creatinine kinase ([2]; single oral dose 25 mg/kg): 1727 U/L; Serum creatinine kinase ([2]; single oral dose 100 mg/kg): 578 U/L; % inhibition of sporozoites growth ([3]; 50 μM, 24 h, MDBK cells): 36% and 36.43 ± 9.76%; Vacuoles containing just one parasite (T. gondii tachyzoites [4]; 2 μM, 6 h treatment (7 h total infection), LLC-MK2): 57%; Concentration required to affect parasite division significantly (T. gondii tachyzoites [4]; 6 h treatment): > 2 µM; Increase in activity (cell division inhibition) compared with the original compound Cipro (T. gondii tachyzoites [4]; 6 h treatment, concentrations with similar effect compared): 10 fold; Parasite proliferation in plaque assay (T. gondii [5]; 5 μM): No growth; also recorded: no plaques were observed; Survival of T. gondii-infected mice, alive 60 days post-infection ([7]; 50 mg/kg/day oral): 18%
CCOC(=O)c1cn(C2CC2)c2cc(N3CCN(Cc4ccccc4)CC3)c(F)cc2c1=O [Ph-Cipro] | parasite cell division arrest | 23.85 | 21.21 | 49.2 | 22.72 | 19.30 | 50.6 | 506 | 21.94 | 19.21 | 52.8 | 22.20 | 19.93 | 46.2 | 1541 | 33.6 ± 11.6 | 42.6 ± 14.6 | 1.24 | No growth; also recorded: no plaques were observed | Basal IMC length mean (T. gondii tachyzoites [1]; 10 μM, 24 h): 0.73 ± 0.24 μm; Serum levels of creatinine kinase (in words) ([2]; 200 mg/kg): slightly altered; Toxicity to mice (in words) ([2]; high doses (200mg/kg)): mild toxicity; Survival of T. gondii-infected mice, alive 60 days post-infection ([7]; 100 mg/kg/day oral): 13%; Survival of T. gondii-infected mice, alive 60 days post-infection ([7]; 150 mg/kg/day oral): 18%
N[C@@H]1[C@H]2CN(c3nc4c(cc3F)c(=O)c(C(=O)O)cn4-c3ccc(F)cc3F)C[C@@H]12 [trovafloxacin] |  |  |  |  |  |  |  |  |  |  |  |  |  |  |  |  |  |  |  | IC50 (T. gondii [8]; L929 cell line): 1.37 µM
COc1c(N2CCNC(C)C2)c(F)cc2c(=O)c(C(=O)O)cn(C3CC3)c12 (stereo not shown) [gatifloxacin] |  |  |  |  |  |  |  |  |  |  |  |  |  |  |  |  |  |  |  | IC50 (T. gondii [8]; HFF primary cell culture after 48h): 0.52 µM
O=C(O)c1cn(C2CC2)c2cc(N3CCNCC3)c(F)cc2c1=O [Cipro, ciprofloxacin] |  |  |  |  |  |  |  |  |  |  |  |  |  |  |  |  |  |  | significant decrease in parasite proliferation; also recorded: drastic reduction on parasite proliferation | Alteration of tachyzoites (in words) (T. gondii tachyzoites [1]; 20 μM, 24 h): not induced any significant alteration; Parasitophorous vacuoles containing parasites presenting cell division arrest (T. gondii tachyzoites [1]; 20 μM, 48 h): 24%; Parasitophorous vacuoles containing parasites presenting cell division arrest (T. gondii tachyzoites [1]; 20 μM, 72 h): 26%; IC50 ([3]; Cryptosporidium parvum, MDBK, after 24h, estimated, read-out: IC50 against C. parvum): 39.2 µM; inhibition at 12.5 µM ([3]; Cryptosporidium parvum, 12.5 μM, 24 h, MDBK cells): 19.5 ± 1.1%; inhibition at 25 µM ([3]; Cryptosporidium parvum, 25 μM, 24 h, MDBK cells): 46.1 ± 2.9%; inhibition at 50 µM ([3]; Cryptosporidium parvum, 50 μM, 24 h, MDBK cells): 53.4 ± 2.51%; Vacuoles containing just one parasite (T. gondii tachyzoites [4]; 20 μM, 6 h treatment (7 h total infection), LLC-MK2): 54%; Parasitophorous vacuoles having just one parasite (T. gondii tachyzoites [4]; 50 μM, 6 h treatment (7 h total infection), LLC-MK2): 68%; Parasite proliferation in plaque assay (T. gondii [5]; 20 / 20 μM): No growth; also recorded: no plaques were observed

From PMC4423777, “Ciprofloxacin Derivatives Affect Parasite Cell Division and Increase the Survival of Mice Infected with Toxoplasma gondii” (PLoS ONE, 2015)
